In paper PMC9402538, “Rational design of a sensitivity-enhanced tracer for discovering efficient APC–Asef inhibitors” (Nature Communications, 2022):
Where a SMILES comes first, the peptide text is derived from it. [ ]: non-standard residue; d: D form. The star is where a group is joined. Bz = O=C(c1ccccc1)*

Assays:
APC = target: T1, APC (Homo sapiens, UniProt P25054); experiment: FP competitive assay using tracer 1; type: binding
T1 sequence (P25054 303-739): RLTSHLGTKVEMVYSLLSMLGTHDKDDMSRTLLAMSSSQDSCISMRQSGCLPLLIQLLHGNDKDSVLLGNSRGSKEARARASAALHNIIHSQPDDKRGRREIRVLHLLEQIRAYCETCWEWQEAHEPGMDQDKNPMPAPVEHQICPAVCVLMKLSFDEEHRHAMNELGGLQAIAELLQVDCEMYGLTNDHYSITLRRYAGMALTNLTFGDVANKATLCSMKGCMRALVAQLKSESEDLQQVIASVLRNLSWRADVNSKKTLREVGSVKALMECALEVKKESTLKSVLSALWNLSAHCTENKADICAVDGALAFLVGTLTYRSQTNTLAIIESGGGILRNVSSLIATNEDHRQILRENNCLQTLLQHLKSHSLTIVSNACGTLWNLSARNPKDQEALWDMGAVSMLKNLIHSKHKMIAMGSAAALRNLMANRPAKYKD
Procedure: In our previous study, we established an FP assay for screening APC–Asef inhibitors using FITC-labeled tracer 1 (Ac–^176[…][FITC]^195–NH2)[16]. […]. However, their Kd values measured by isothermal titration calorimetry (ITC) actually vary up to more than 20 times[16],[17]. […].
FITC-labeled tracer peptides were obtained from Changzhou Kanglong Biotech Ltd. (Changzhou, Jiangsu, China). […]. The FP signal changes upon tracer binding were measured after 1.5 h of incubation using a Synergy neo microplate reader (BioTek Instruments, Inc.) and plotted against the protein concentration. The corresponding EC50 values were generated by fitting the curves with a nonlinear regression model. […]. To make a working solution, APC (303–739) was diluted in FP buffer (50 mM HEPES, pH 7.5, 300 mM NaCl, 1 mM EDTA, 1 mM DTT). […] The FP signals were measured after 1.5 h of incubation at room temperature using a Synergy neo microplate reader. Three controls were included on each plate, i.e., blank (without protein and tracer), 100% inhibition (free tracer only), and 0% inhibition (protein/tracer complex only) controls. All experiments were performed in triplicate. The IC50 values of peptides were calculated by nonlinear regression analysis using GraphPad Prism 7.0 software.

APC (303–739) = target: T2, APC (303–739) (Homo sapiens, UniProt P25054); experiment: FP competitive assay using tracer 7; type: binding; settings: IC50, Tracer 7, Supplementary Table 4
T2 sequence (P25054 303-739): T1 sequence (P25054 303-739)
Procedure: FITC-labeled tracer peptides were obtained from Changzhou Kanglong Biotech Ltd. (Changzhou, Jiangsu, China). […]. The FP signal changes upon tracer binding were measured after 1.5 h of incubation using a Synergy neo microplate reader (BioTek Instruments, Inc.) and plotted against the protein concentration. The corresponding EC50 values were generated by fitting the curves with a nonlinear regression model. […]. To make a working solution, APC (303–739) was diluted in FP buffer (50 mM HEPES, pH 7.5, 300 mM NaCl, 1 mM EDTA, 1 mM DTT). The diluted APC protein (91 μL) was combined with a serial dilution of peptides (4 μL) and incubated at room temperature for 1 h, followed by the addition of 5 μL of 400 nM tracer 7. The FP signals were measured after 1.5 h of incubation at room temperature using a Synergy neo microplate reader. Three controls were included on each plate, i.e., blank (without protein and tracer), 100% inhibition (free tracer only), and 0% inhibition (protein/tracer complex only) controls. All experiments were performed in triplicate. The IC50 values of peptides were calculated by nonlinear regression analysis using GraphPad Prism 7.0 software.

SMILES	IC50 (APC)	IC50 (APC (303–739))
C[C@H](NC(=O)c1ccccc1)C(=O)NCC(=O)N[C@@H](CCC(=O)O)C(=O)N[C@@H](CO)C(=O)N[C@@H](Cc1ccc(O)cc1)C(=O)N[C@@H](Cc1ccc(O)cc1)C(=O)N[C@@H](CCC(=O)O)C(N)=O [MAI-458] (Bz-AGESYYE-NH2)	590 ± 140 nM	900 ± 30 nM
CC(C)C[C@H](NC(=O)[C@H](CO)NC(=O)[C@H](CCC(=O)O)NC(=O)CNC(=O)[C@H](C)NC(=O)c1ccccc1)C(=O)N[C@@H](Cc1ccc(O)cc1)C(=O)N[C@H](CCC(=O)O)C(N)=O [MAI-465] (Bz-AGESLY[dE]-NH2)	750 ± 150 nM	–
